These results are taken from US10906938B2, “Cell epitopes and combination of cell epitopes for use in the immunotherapy of myeloma and other cancers” (Immatics Biotechnologies GmbH, priority 2015, dated 2021).

The test system of one experiment is MM.1S cells. Briefly: HLA class I ligand presentation upon carfilzomib treatment on MM.1S cells (LC-MS/MS). Type of experiment: cell-based, human. Further details: key to modulation upon carfilzomib-treatment 24 #1 / modulation upon carfilzomib-treatment 24 #2 / modulation upon carfilzomib-treatment 24 #3 / modulation upon carfilzomib-treatment 48 #1 / modulation upon carfilzomib-treatment 48 #2 / modulation upon carfilzomib-treatment 48 #3: −1: significantly down-modulated; 0: not signifcant/not detected; 1: significantly up-modulated. Particulars: MM.1S cells; for modulation upon carfilzomib-treatment 24 #1 / modulation upon carfilzomib-treatment 24 #2 / modulation upon carfilzomib-treatment 24 #3: 24 h after carfilzomib treatment (100 nM, 1 h); for modulation upon carfilzomib-treatment 24 #1 / modulation upon carfilzomib-treatment 48 #1: biological replicate #1; for modulation upon carfilzomib-treatment 24 #1 / modulation upon carfilzomib-treatment 24 #2 / modulation upon carfilzomib-treatment 24 #3 / modulation upon carfilzomib-treatment 48 #1 / modulation upon carfilzomib-treatment 48 #2 / modulation upon carfilzomib-treatment 48 #3: vs mock-treated controls; for modulation upon carfilzomib-treatment 24 #2 / modulation upon carfilzomib-treatment 48 #2: biological replicate #2; for modulation upon carfilzomib-treatment 24 #3 / modulation upon carfilzomib-treatment 48 #3: biological replicate #3; for modulation upon carfilzomib-treatment 48 #1 / modulation upon carfilzomib-treatment 48 #2 / modulation upon carfilzomib-treatment 48 #3: 48 h after carfilzomib treatment (100 nM, 1 h). As for the experimental part:
(§1) HLA class I and II molecules were isolated using standard immunoaffinity purification as described using the pan-HLA class I specific mAb W6/32, the pan-HLA class II specific mAb T039 and the HLA-DR specific mAB L243 (produced in house).
(§2) HLA ligand extracts were analyzed in 5 technical replicates as described previously. In brief, peptide samples were separated by nanoflow HPLC (RSLCnano, ThermoFisher) using a 50 μm×25 cm PepMap RSLC column (Thermo Fisher) and a gradient ranging from 2.4 to 32.0% acetonitrile over the course of 90 min. Eluting peptides were analyzed in an online coupled LTQ Orbitrap XL mass spectrometer (Thermo Fisher) using a top 5 CID (collision induced dissociation) fragmentation method.
(§3) Data processing was performed as described previously. In brief, the Mascot search engine (Mascot 2.2.04; Matrix Science, London, UK) was implemented to search the human proteome as comprised in the Swiss-Prot database (20,279 reviewed protein sequences, September 2013) without enzymatic restriction. Potential mutated HLA ligands were searched implementing a database containing the human proteome concatenated with proteins containing single amino acid variants (SAVs) listed in the COSMIC database (http://cancer.sanger.ac.uk/cosmic/). Only recurrent SAVs described in 2 or more samples of hematological origin were included. Oxidized methionine was allowed as a dynamic modification. The false discovery rate was estimated using the Percolator algorithm and set to 5%. Peptide lengths were limited to 8-12 amino acids for HLA class I and 12-25 amino acids for HLA class II. Protein inference was disabled, allowing for multiple protein annotations of peptides. HLA annotation was performed using SYFPEITHI [46] or an extended in-house database. Experimental validation of peptide identifications and HLA annotations was performed by mass spectrometric and functional characterization of synthetic peptides for a subset of peptides.
(§4) The inventors quantitatively assessed HLA class I ligand presentation during proteasome inhibitor therapy. Observed was a considerable plasticity of the HLA class I ligandome after treatment with carfilzomib with 17.9±1.1% of MM.1S ligands and 11.2±0.7% of U266 ligands (mean of three biological replicates ±s.d.) showing significant modulation (fold-change ≥4, Po0.01 after Benjamini-Hochberg correction) at t24 h compared with mock-treated controls. Briefly, Cultured MCLs (MM.1S and U266) and primary myeloma samples were incubated with carfilzomib (100 nM, Kyprolis®, available, e.g., from Onyx Pharmaceuticals, Inc.) as an example for a proteasome inhibitor for a 1-h period, followed by three washes in PBS (Gibco) and recultured for additional 24 or 48 h. Controls were incubated with vehicle control (glucose 5%) for 1 h, followed by identical washing and incubation for 24 or 48 h. Experiments were conducted in three biological replicates where indicated.

For the next experiment, the system named is U266 cells. Put plainly: HLA class I ligand presentation upon carfilzomib treatment on U266 cells (LC-MS/MS). In kind it is cell-based, human. Further details: key to modulation upon carfilzomib-treatment 24 #1 / modulation upon carfilzomib-treatment 24 #2 / modulation upon carfilzomib-treatment 24 #3 / modulation upon carfilzomib-treatment 48 #1 / modulation upon carfilzomib-treatment 48 #2 / modulation upon carfilzomib-treatment 48 #3: −1: significantly down-modulated; 0: not signifcant/not detected; 1: significantly up-modulated. Particulars: U266 cells, vs mock-treated controls; for modulation upon carfilzomib-treatment 24 #1 / modulation upon carfilzomib-treatment 24 #2 / modulation upon carfilzomib-treatment 24 #3: 24 h after carfilzomib treatment (100 nM, 1 h); for modulation upon carfilzomib-treatment 24 #1 / modulation upon carfilzomib-treatment 48 #1: biological replicate #1; for modulation upon carfilzomib-treatment 24 #2 / modulation upon carfilzomib-treatment 48 #2: biological replicate #2; for modulation upon carfilzomib-treatment 24 #3 / modulation upon carfilzomib-treatment 48 #3: biological replicate #3; for modulation upon carfilzomib-treatment 48 #1 / modulation upon carfilzomib-treatment 48 #2 / modulation upon carfilzomib-treatment 48 #3: 48 h after carfilzomib treatment (100 nM, 1 h). As for the experimental part:
as §1, §2, §3, §4

Turning to YVFPGVTRL, in the experiment on MM.1S cells, the “modulation upon carfilzomib-treatment 24 #1” value is given as 0, the “modulation upon carfilzomib-treatment 24 #2” value came to 0, the “modulation upon carfilzomib-treatment 24 #3” value was 0 and the “modulation upon carfilzomib-treatment 48 #1” value is on record as −1. For the same sequence, in the experiment on MM.1S cells, the “modulation upon carfilzomib-treatment 48 #2” value was found to be 0 and the “modulation upon carfilzomib-treatment 48 #3” value is reported as 0.
As to SYLNSVQRL, in the experiment on MM.1S cells, the “modulation upon carfilzomib-treatment 24 #1” value is 0, the “modulation upon carfilzomib-treatment 24 #2” value was determined as 0, the “modulation upon carfilzomib-treatment 24 #3” value stood at 0 and the “modulation upon carfilzomib-treatment 48 #1” value came to 0. Further, in the experiment with MM.1S cells, the “modulation upon carfilzomib-treatment 48 #2” value amounted to 0 and the “modulation upon carfilzomib-treatment 48 #3” value stood at 0.
For the sequence SPALPGLKL, in the experiment with MM.1S cells, the “modulation upon carfilzomib-treatment 24 #1” value amounted to 0, the “modulation upon carfilzomib-treatment 24 #2” value is recorded as 0, the “modulation upon carfilzomib-treatment 24 #3” value is recorded as 0 and the “modulation upon carfilzomib-treatment 48 #1” value is listed as 0. In the experiment with MM.1S cells, the “modulation upon carfilzomib-treatment 48 #2” value stood at 0 and the “modulation upon carfilzomib-treatment 48 #3” value is recorded as 0.
NEVIMTIGF: in the experiment on MM.1S cells, the “modulation upon carfilzomib-treatment 24 #1” value came to 0, the “modulation upon carfilzomib-treatment 24 #2” value is given as 0, the “modulation upon carfilzomib-treatment 24 #3” value is on record as 0 and the “modulation upon carfilzomib-treatment 48 #1” value is recorded as 0. In addition, in the experiment with MM.1S cells, the “modulation upon carfilzomib-treatment 48 #2” value was 1 and the “modulation upon carfilzomib-treatment 48 #3” value came to 0.
Turning to VPLPPKGRVL, in the experiment on MM.1S cells, the “modulation upon carfilzomib-treatment 24 #1” value turned out to be 0, the “modulation upon carfilzomib-treatment 24 #2” value stood at 0, the “modulation upon carfilzomib-treatment 24 #3” value is recorded as 0 and the “modulation upon carfilzomib-treatment 48 #1” value stood at 0. In addition, in the experiment with MM.1S cells, the “modulation upon carfilzomib-treatment 48 #2” value is reported as 0 and the “modulation upon carfilzomib-treatment 48 #3” value was 0.
For RYLDLFTSF, in the experiment with MM.1S cells, the “modulation upon carfilzomib-treatment 24 #1” value is −1, the “modulation upon carfilzomib-treatment 24 #2” value is −1, the “modulation upon carfilzomib-treatment 24 #3” value was −1 and the “modulation upon carfilzomib-treatment 48 #1” value amounted to 0. Moreover, in the experiment on MM.1S cells, the “modulation upon carfilzomib-treatment 48 #2” value is on record as −1 and the “modulation upon carfilzomib-treatment 48 #3” value was −1.
YYLNEIQSF [SEQ ID NO: 228]: the “modulation of peptide presentation upon carfilzomib treatment” value with MM.1S cells (24 h after carfilzomib treatment) is “no significant modulation”.
In the case of AFIQAGIFQEF, in the experiment with MM.1S cells, the “modulation upon carfilzomib-treatment 24 #1” value is recorded as −1, the “modulation upon carfilzomib-treatment 24 #2” value is listed as 0, the “modulation upon carfilzomib-treatment 24 #3” value is −1 and the “modulation upon carfilzomib-treatment 48 #1” value came to 0. In the experiment on MM.1S cells, the “modulation upon carfilzomib-treatment 48 #2” value is reported as 0 and the “modulation upon carfilzomib-treatment 48 #3” value is recorded as −1.
On to IEHPSMSVY, for which, in the experiment with MM.1S cells, the “modulation upon carfilzomib-treatment 24 #1” value stood at 1, the “modulation upon carfilzomib-treatment 24 #2” value is recorded as 1, the “modulation upon carfilzomib-treatment 24 #3” value was found to be 1 and the “modulation upon carfilzomib-treatment 48 #1” value worked out at 0. For the same sequence, in the experiment on MM.1S cells, the “modulation upon carfilzomib-treatment 48 #2” value amounted to 1 and the “modulation upon carfilzomib-treatment 48 #3” value was 1.
For the sequence RYSTQIHSF, in the experiment with MM.1S cells, the “modulation upon carfilzomib-treatment 24 #1” value worked out at 0, the “modulation upon carfilzomib-treatment 24 #2” value is given as 0, the “modulation upon carfilzomib-treatment 24 #3” value is 0 and the “modulation upon carfilzomib-treatment 48 #1” value worked out at 0. Further, in the experiment on MM.1S cells, the “modulation upon carfilzomib-treatment 48 #2” value is 0 and the “modulation upon carfilzomib-treatment 48 #3” value is given as 0.
Regarding FAQIISVALI, in the experiment with MM.1S cells, the “modulation upon carfilzomib-treatment 24 #1” value was found to be 0, the “modulation upon carfilzomib-treatment 24 #2” value is reported as 0, the “modulation upon carfilzomib-treatment 24 #3” value amounted to 0 and the “modulation upon carfilzomib-treatment 48 #1” value worked out at 0. Moreover, in the experiment with MM.1S cells, the “modulation upon carfilzomib-treatment 48 #2” value came out at 0 and the “modulation upon carfilzomib-treatment 48 #3” value amounted to 0.
With NEFPVFDEF, in the experiment with MM.1S cells, the “modulation upon carfilzomib-treatment 24 #1” value was determined as 0, the “modulation upon carfilzomib-treatment 24 #2” value stood at 0, the “modulation upon carfilzomib-treatment 24 #3” value turned out to be 0 and the “modulation upon carfilzomib-treatment 48 #1” value is 0. Further, in the experiment on MM.1S cells, the “modulation upon carfilzomib-treatment 48 #2” value is 0 and the “modulation upon carfilzomib-treatment 48 #3” value turned out to be 0.
For TFLPFIHTI, in the experiment on MM.1S cells, the “modulation upon carfilzomib-treatment 24 #1” value is 0, the “modulation upon carfilzomib-treatment 24 #2” value is recorded as 0, the “modulation upon carfilzomib-treatment 24 #3” value stood at 0 and the “modulation upon carfilzomib-treatment 48 #1” value turned out to be 0. Besides, in the experiment with MM.1S cells, the “modulation upon carfilzomib-treatment 48 #2” value came out at 0 and the “modulation upon carfilzomib-treatment 48 #3” value was found to be 0.
LAFPGEMLL: in the experiment with MM.1S cells, the “modulation upon carfilzomib-treatment 24 #1” value came to 0, the “modulation upon carfilzomib-treatment 24 #2” value was found to be 0, the “modulation upon carfilzomib-treatment 24 #3” value was determined as 0 and the “modulation upon carfilzomib-treatment 48 #1” value was 0. In addition, in the experiment on MM.1S cells, the “modulation upon carfilzomib-treatment 48 #2” value is recorded as 0 and the “modulation upon carfilzomib-treatment 48 #3” value worked out at 0.
With FLWDEGFHQL, in the experiment with U266 cells, the “modulation upon carfilzomib-treatment 24 #1” value was found to be 0, the “modulation upon carfilzomib-treatment 24 #2” value is listed as 0, the “modulation upon carfilzomib-treatment 24 #3” value was 0 and the “modulation upon carfilzomib-treatment 48 #1” value is on record as 0. Besides, in the experiment with U266 cells, the “modulation upon carfilzomib-treatment 48 #2” value is on record as 0 and the “modulation upon carfilzomib-treatment 48 #3” value was 0.
Take SPALKRLDL: in the experiment with U266 cells, the “modulation upon carfilzomib-treatment 24 #1” value came out at 0, the “modulation upon carfilzomib-treatment 24 #2” value was 0, the “modulation upon carfilzomib-treatment 24 #3” value worked out at 0 and the “modulation upon carfilzomib-treatment 48 #1” value was 0. In the experiment on U266 cells, the “modulation upon carfilzomib-treatment 48 #2” value is 0 and the “modulation upon carfilzomib-treatment 48 #3” value was 0.
Turning to RVNKVIIGTK, in the experiment with U266 cells, the “modulation upon carfilzomib-treatment 24 #1” value was found to be 0, the “modulation upon carfilzomib-treatment 24 #2” value is 0, the “modulation upon carfilzomib-treatment 24 #3” value was 0 and the “modulation upon carfilzomib-treatment 48 #1” value worked out at 0. In the experiment with U266 cells, the “modulation upon carfilzomib-treatment 48 #2” value is 0 and the “modulation upon carfilzomib-treatment 48 #3” value is listed as 0.
With YLYITKVLK, in the experiment with U266 cells, the “modulation upon carfilzomib-treatment 24 #1” value is recorded as 0, the “modulation upon carfilzomib-treatment 24 #2” value is 0, the “modulation upon carfilzomib-treatment 24 #3” value stood at 0 and the “modulation upon carfilzomib-treatment 48 #1” value amounted to 0. In addition, in the experiment on U266 cells, the “modulation upon carfilzomib-treatment 48 #2” value turned out to be 0 and the “modulation upon carfilzomib-treatment 48 #3” value was 0.
LPPPPHVPL: in the experiment on U266 cells, the “modulation upon carfilzomib-treatment 24 #1” value is given as 0, the “modulation upon carfilzomib-treatment 24 #2” value was 0, the “modulation upon carfilzomib-treatment 24 #3” value was 0 and the “modulation upon carfilzomib-treatment 48 #1” value is reported as 0. In the experiment on U266 cells, the “modulation upon carfilzomib-treatment 48 #2” value amounted to 0 and the “modulation upon carfilzomib-treatment 48 #3” value was determined as 0.
Consider KPKDPLKISL, for which, in the experiment on U266 cells, the “modulation upon carfilzomib-treatment 24 #1” value is −1, the “modulation upon carfilzomib-treatment 24 #2” value is recorded as −1, the “modulation upon carfilzomib-treatment 24 #3” value is −1 and the “modulation upon carfilzomib-treatment 48 #1” value worked out at 0. Also, in the experiment on U266 cells, the “modulation upon carfilzomib-treatment 48 #2” value is recorded as −1 and the “modulation upon carfilzomib-treatment 48 #3” value is given as −1.
On to APFQGDQRSL, for which, in the experiment with U266 cells, the “modulation upon carfilzomib-treatment 24 #1” value was determined as 0, the “modulation upon carfilzomib-treatment 24 #2” value came to 1, the “modulation upon carfilzomib-treatment 24 #3” value is reported as 1 and the “modulation upon carfilzomib-treatment 48 #1” value was found to be 0. In the experiment on U266 cells, the “modulation upon carfilzomib-treatment 48 #2” value is given as 1 and the “modulation upon carfilzomib-treatment 48 #3” value is 0.
